# Measurements as given in patent publication US20240270762A1, “PENICILLIN-BINDING PROTEIN INHIBITORS” (priority 2021, published 2024).
# How the values were obtained:
# [1] = target: T1, PBP3 from Escherichia coli (K-12) (Escherichia coli, UniProt P0AD68); assay: Bocillin-FL fluorescence polarization competition binding, E. coli PBP3
# T1 construct: made in house
# Description: (§1) To determine the ability of boronic acid-based test PBP inhibitors to bind Penicillin Binding Proteins (PBPs), Bocillin-FL (fluorescently-labeled penicillin V; ThermoFisher Scientific) was used in a fluorescence polarization (FP) competition binding assay to assess inhibitor binding to PBP3 from Escherichia coli (K-12), PBP3 from Pseudomonas aeruginosa (PAO1), PBP1a and PBP3 from Acinetobacter baumannii (ATCC 19606), and PBP2 from Neisseria gonorrhoeae (FA19). PBPs were cloned and purified as described previously (E. coli PBP3, King, D. T, et al., ACS Infectious Diseases 2015, 1, 175-184; P. aeruginosa PBP3, Han et. al., PNAS 2010, 107 (51), 22002-22007; A. baumannii PBPs, Penwell et. al., Antimicrob. Agents Chemother. 2015, 59 (3), 1680-1689; N. gonorrhoeae PBP2, Singh et. al., J. Biol. Chem. 2019, 294 (38), 14020-14032). To establish assay conditions for competition binding, enzyme titration/saturation binding experiments were initially performed. Bocillin-FL was prepared at 0.2 μM in a buffer comprised of 50 mM Hepes (pH 8.0), 300 mM NaCl and 10% (v/v) glycerol for reactions with E. coli, P. aeruginosa and N. gonorrhoeae PBPs, and 25 mM Tris (pH 8.0), 200 mM NaCl, 10% (v/v) glycerol and 0.005% (v/v) Tween 20 for reactions with A. baumannii PBPs. Saturation binding was performed by mixing 40 μl of PBP solutions ranging in concentrations from 0-24 μM with 40 μl of the 0.2 μM Bocillin-FL solution, in individual wells of a black 384-well microplate. FP was measured immediately upon mixing (Excitation, 490 nm; Emission, 520 nm; g-factor, 0.96), using a Cytation3 (BioTek) microplate reader and measured continuously for up to 120 minutes. The FP response stabilized after 15 minutes for P. aeruginosa and A. baumannii PBP3, 30 minutes for E. coli PBP3 and A. baumannii PBP1a, and less than 1 minute for N. gonorrhoeae PBP2. […] The competition binding assay (80 μl final volume) was validated using beta-lactams and PBPs at final concentrations of: 1.5 μM for E. coli PBP3; 0.75 μM for P. aeruginosa PBP3; 1 μM for A. baumannii PBP1a; 0.2 μM for A. baumannii PBP3; and 0.25 μM for N. gonorrhoeae PBP2. Bocillin-FL was at 0.1 μM (0.05 μM with A. baumannii PBP1a) and beta-lactam concentrations ranged from 0-1,000 μM. E. coli PBP3 was incubated with increasing concentrations of ampicillin in a black 384-well microplate (Corning) for 30 minutes. P. aeruginosa PBP3 was incubated for 15 minutes with aztreonam, whereas A. baumannii PBP1a and PBP3 were incubated for 15 minutes with meropenem, and then Bocillin-FL was added followed immediately by the FP measurement for up to 60 minutes. […] The beta-lactam potency was reported as the concentration of beta-lactam required to reduce the amount of PBP bound-Bocillin-FL by 50% (EC50). […] The EC50 of aztreonam was determined to be <0.5 μM for P. aeruginosa PBP3. […] Binding assays for boronic acid PBP inhibitors were performed in an identical fashion for the respective PBPs.
# K. pneumoniae SI-117 = assay: microbe, parasite or virus in culture; assay type: cell-based; conditions: Klebsiella pneumoniae, SI117, read-out: MIC K. pneumoniae SI-117
# A. baumannii ATCC 19606 = assay: microbe, parasite or virus in culture; assay type: cell-based; conditions: Acinetobacter baumannii, ATCC19606, read-out: MIC, A. baumannii ATCC 19606
# K. pneumoniae UMM = assay: microbe, parasite or virus in culture; assay type: cell-based; conditions: Klebsiella pneumoniae, read-out: MIC K. pneumoniae UMM
# [2] = test system: P. aeruginosa (ΔmexAB-oprM); assay: Broth microdilution MIC in CAMHB; assay type: cell-based; conditions: Pseudomonas aeruginosa; read-out: MIC P. aeruginosa ΔmexAB-oprM
# K. pneumoniae 848844 = assay: microbe, parasite or virus in culture; assay type: cell-based; conditions: Klebsiella pneumoniae, 848844, read-out: MIC K. pneumoniae 848844
# E. coli D22 = assay: microbe, parasite or virus in culture; assay type: cell-based; conditions: Escherichia coli, D22, read-out: MIC E. coli D22
# E. coli AG100A = assay: Broth microdilution MIC in CAMHB; assay type: cell-based; conditions: Escherichia coli, read-out: MIC E. coli AG100A
# E. coli 901C = assay: microbe, parasite or virus in culture; assay type: cell-based; conditions: Escherichia coli, read-out: MIC E. coli 901C
# [3] = target: T2, PBP3 from Pseudomonas aeruginosa (PAO1) (Pseudomonas aeruginosa, UniProt G3XD46); assay: Bocillin-FL fluorescence polarization competition binding, P. aeruginosa PBP3; conditions: Binding affinity to P. aeruginosa PBP3; fluorescence polarization competition binding assay using Bocillin-FL; read-out: P. aeruginosa PBP3 Potency
# T2 construct: made in house
# Description: as §1
# E. coli AG100 = assay: microbe, parasite or virus in culture; assay type: cell-based; conditions: Escherichia coli, AG100, read-out: MIC E. coli AG100
# E. coli ATCC 25922 = assay: microbe, parasite or virus in culture; assay type: cell-based; conditions: Escherichia coli, ATCC25922, read-out: MIC E. coli 25922
# P. aeruginosa ATCC 27853 = assay: microbe, parasite or virus in culture; assay type: cell-based; conditions: Pseudomonas aeruginosa, ATCC27853, read-out: MIC P. aeruginosa ATCC 27853
# P. aeruginosa ATCC 35151 = assay: microbe, parasite or virus in culture; assay type: cell-based; conditions: Pseudomonas aeruginosa, ATCC35151, read-out: MIC P. aeruginosa ATCC 35151
# A. baumannii PBP2 = A. baumannii PBP2 (Acinetobacter baumannii, UniProt D0C8Z9); assay: Bocillin-FL competition binding via gel filtration, A. baumannii PBP2
# Description: (§2) Affinity to A. baumannii PBP1a and PBP2 was assessed a competitive equilibrium binding assay using Bocillin-FL as the reporter molecule. Enzyme was pre-incubated with increasing concentrations of inhibitors, prior to addition of Bocillin and further incubation for 15 minutes. PBP bound with Bocillin-FL was separated by gel filtration using 96-well Zeba Spin size exclusion plates, and the fluorescence measured. The inhibitor affinity (reported as the EC50) was determined by plotting the fraction of PBP bound with Bocillin-FL at each inhibitor concentration against the inhibitor concentration, and fitting the data to the following equation:
# (§3) [formula] • where y is the fraction bound at a given inhibitor concentration, ymin is the fraction bound when the enzyme is completely inactivated, ymax is the maximum (uninhibited) fraction bound, n is the Hill coefficient, and x is the inhibitor concentration.
# B. pseudomallei Bp82 = assay: microbe, parasite or virus in culture; assay type: cell-based; conditions: Burkholderia pseudomallei, BP82, read-out: Minimum inhibitory concentration, B. pseudomallei Bp82
# [4] = test system: B. humptydooensis ATCC BAA-2767; assay: microbe, parasite or virus in culture; assay type: cell-based; conditions: Burkholderia humptydooensis, ATCCBAA2767, read-out: Minimum inhibitory concentration (MIC), B. humptydooensis ATCC BAA-2767
# A. baumannii PBP1a = target: T3, A. baumannii PBP1a (Acinetobacter baumannii, UniProt A0ABX6CK30); assay: Bocillin-FL competition binding via gel filtration, A. baumannii PBP1a; conditions: competition binding assay using Bocillin-FL via gel filtration; read-out: A. baumannii PBP1a Potency
# T3 sequence (A0ABX6CK30 1-851): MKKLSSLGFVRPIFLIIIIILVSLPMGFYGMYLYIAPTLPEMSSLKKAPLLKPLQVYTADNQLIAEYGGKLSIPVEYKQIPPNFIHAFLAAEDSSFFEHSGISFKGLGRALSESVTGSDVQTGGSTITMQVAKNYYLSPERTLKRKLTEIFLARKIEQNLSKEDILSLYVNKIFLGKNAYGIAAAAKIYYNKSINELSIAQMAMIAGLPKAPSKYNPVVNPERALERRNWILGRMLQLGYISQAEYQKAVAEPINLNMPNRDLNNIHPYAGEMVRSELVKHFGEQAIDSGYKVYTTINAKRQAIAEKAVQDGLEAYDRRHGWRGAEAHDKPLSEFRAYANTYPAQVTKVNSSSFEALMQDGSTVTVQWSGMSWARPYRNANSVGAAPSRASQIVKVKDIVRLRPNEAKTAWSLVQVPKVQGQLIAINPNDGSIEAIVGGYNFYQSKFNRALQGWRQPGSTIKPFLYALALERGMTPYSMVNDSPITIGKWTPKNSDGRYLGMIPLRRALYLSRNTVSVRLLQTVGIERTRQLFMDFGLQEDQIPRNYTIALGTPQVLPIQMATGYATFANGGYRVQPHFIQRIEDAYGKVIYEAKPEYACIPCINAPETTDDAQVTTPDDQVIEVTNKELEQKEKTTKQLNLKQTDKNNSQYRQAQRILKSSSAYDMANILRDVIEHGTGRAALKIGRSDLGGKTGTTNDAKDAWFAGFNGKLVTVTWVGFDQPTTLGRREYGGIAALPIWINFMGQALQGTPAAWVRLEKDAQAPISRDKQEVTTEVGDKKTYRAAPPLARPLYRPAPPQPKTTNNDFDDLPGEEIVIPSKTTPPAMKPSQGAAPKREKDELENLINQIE
# Description: as §2, §3
# [5] = test system: B. thailandensis ATCC 700388; assay: microbe, parasite or virus in culture; assay type: cell-based; conditions: Burkholderia thailandensis, ATCC700388, read-out: Minimum inhibitory concentration (MIC), B. thailandensis ATCC 700388
# [6] = test system: N. gonorrhoeae ATCC 49226; assay: Liquid broth MIC in Fastidious broth; conditions: Neisseria gonorrhoeae, ATCC49226, read-out: Minimum Inhibitory Concentration, ATCC 49226
# N. gonorrhoeae WHO Z = assay: Liquid broth MIC in Fastidious broth; conditions: Neisseria gonorrhoeae, read-out: Minimum Inhibitory Concentration, WHO Z
# N. gonorrhoeae FA1090 = assay: Liquid broth MIC in Fastidious broth; conditions: Neisseria gonorrhoeae, FA1090, read-out: Minimum Inhibitory Concentration, FA 1090
# T1 sequence (P0AD68 1-577): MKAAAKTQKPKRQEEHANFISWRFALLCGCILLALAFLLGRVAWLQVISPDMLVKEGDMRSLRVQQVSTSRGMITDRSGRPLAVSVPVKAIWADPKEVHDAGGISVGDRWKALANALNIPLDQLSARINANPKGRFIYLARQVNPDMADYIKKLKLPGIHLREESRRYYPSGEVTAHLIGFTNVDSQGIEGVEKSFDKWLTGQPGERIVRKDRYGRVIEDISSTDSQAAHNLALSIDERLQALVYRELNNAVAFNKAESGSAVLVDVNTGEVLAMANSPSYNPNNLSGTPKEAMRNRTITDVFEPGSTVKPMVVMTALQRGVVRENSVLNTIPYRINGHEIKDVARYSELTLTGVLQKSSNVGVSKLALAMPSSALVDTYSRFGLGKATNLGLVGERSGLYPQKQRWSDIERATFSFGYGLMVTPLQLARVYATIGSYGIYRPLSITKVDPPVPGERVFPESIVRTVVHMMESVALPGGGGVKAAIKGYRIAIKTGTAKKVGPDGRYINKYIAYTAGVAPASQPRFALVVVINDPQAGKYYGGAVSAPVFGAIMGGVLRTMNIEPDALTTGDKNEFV
# T2 sequence (G3XD46 whole entry): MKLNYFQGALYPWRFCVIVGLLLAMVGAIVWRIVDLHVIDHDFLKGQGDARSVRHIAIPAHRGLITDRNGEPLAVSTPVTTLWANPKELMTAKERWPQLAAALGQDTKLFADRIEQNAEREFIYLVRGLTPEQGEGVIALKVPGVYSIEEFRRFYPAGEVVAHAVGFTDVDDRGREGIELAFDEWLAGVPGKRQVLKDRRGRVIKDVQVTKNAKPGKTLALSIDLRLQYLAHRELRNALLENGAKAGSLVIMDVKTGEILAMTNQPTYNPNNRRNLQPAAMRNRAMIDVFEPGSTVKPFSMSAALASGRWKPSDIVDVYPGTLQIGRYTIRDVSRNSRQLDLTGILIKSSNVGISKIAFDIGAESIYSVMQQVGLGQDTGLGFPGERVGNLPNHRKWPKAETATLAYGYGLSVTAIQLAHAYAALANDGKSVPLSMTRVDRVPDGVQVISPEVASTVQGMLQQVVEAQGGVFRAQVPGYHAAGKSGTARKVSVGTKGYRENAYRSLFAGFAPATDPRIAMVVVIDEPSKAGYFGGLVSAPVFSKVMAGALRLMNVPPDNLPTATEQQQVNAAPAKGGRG
# Chain of A. baumannii PBP2 (D0C8Z9 whole entry): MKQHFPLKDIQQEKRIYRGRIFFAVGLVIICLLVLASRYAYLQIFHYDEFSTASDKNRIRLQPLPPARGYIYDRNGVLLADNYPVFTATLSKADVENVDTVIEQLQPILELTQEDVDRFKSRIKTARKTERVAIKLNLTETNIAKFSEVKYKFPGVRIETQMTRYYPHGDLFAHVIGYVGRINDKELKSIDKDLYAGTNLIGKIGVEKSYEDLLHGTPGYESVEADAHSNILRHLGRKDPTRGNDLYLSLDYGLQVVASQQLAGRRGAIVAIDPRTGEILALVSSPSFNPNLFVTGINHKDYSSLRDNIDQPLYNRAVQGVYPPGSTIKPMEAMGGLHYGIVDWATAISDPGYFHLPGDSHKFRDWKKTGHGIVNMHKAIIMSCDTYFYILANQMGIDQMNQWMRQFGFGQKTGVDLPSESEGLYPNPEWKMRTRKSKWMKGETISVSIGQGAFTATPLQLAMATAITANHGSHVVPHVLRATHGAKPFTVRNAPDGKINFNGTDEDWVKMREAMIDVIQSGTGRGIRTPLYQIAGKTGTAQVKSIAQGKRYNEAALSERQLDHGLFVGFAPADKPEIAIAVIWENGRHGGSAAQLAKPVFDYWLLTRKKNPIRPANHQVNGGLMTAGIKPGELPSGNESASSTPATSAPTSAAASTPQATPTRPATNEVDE
SMILES,EC50 [1] [µM],MIC (K. pneumoniae SI-117) [µg/mL],MIC (A. baumannii ATCC 19606) [µg/mL],MIC (K. pneumoniae UMM) [µg/mL],MIC [2] [µg/mL],MIC (K. pneumoniae 848844) [µg/mL],MIC (E. coli D22) [µg/mL],MIC (E. coli AG100A) [µg/mL],MIC (E. coli 901C) [µg/mL],IC50 [3] [µM],MIC (E. coli AG100) [µg/mL],MIC (E. coli ATCC 25922) [µg/mL],MIC (P. aeruginosa ATCC 27853) [µg/mL],MIC (P. aeruginosa ATCC 35151) [µg/mL],EC50 (A. baumannii PBP2) [µM],MIC (B. pseudomallei Bp82) [µg/mL],MIC [4] [µg/mL],EC50 (A. baumannii PBP1a) [µM],MIC [5] [µg/mL],also measured
"O=C(N[C@@H](C(=O)N[C@H]1Cc2cccc(C(=O)O)c2OB1O)c1ccc(P(=O)(O)O)cc1)c1cnc2ccnn2c1 (single isomer, unassigned) [Example 187]",10 to 50,> 128,> 128,> 128,32 to 64,> 128,32 to 64,> 128,8 to 16,< 10,> 128,> 128,> 128,2 to 4,,,,,,
"O=C(N[C@@H](C(=O)N[C@H]1Cc2cccc(C(=O)O)c2OB1O)c1ccc(P(=O)(O)O)cc1)c1cnc2cccn2c1 (single isomer, unassigned) [Example 499]",10 to 50,> 128,> 128,> 128,32 to 64,> 128,32 to 64,32 to 64,2 to 4,< 10,> 128,> 128,> 128,2 to 4,,,,,,
"O=C(O)c1c(F)ccc2c1OB(O)[C@@H](NC(=O)C(NC(=O)N1CCN(C3CCN(Cc4ccc(O)cc4)CC3)C1=O)c1cc(F)c(O)c(O)c1Cl)C2 (single isomer, unassigned) [Example 609]",,,,,,,,,,,,,,,10 to 50,< 1,< 1,< 10,< 1,
"O=C(O)c1c(F)ccc2c1OB(O)[C@@H](NC(=O)C(NC(=O)N1CCN(C3CCN(Cc4ccc(O)c(F)c4)CC3)C1=O)c1cc(F)c(O)c(O)c1Cl)C2 (single isomer, unassigned) [Example 610]",,,,,,,,,,,,,,,10 to 50,< 1,< 1,< 10,< 1,
"O=C(O)c1c(F)ccc2c1OB(O)[C@@H](NC(=O)C(NC(=O)N1CCN(C3CCN(Cc4cc(O)cc(O)c4)CC3)C1=O)c1cc(F)c(O)c(O)c1Cl)C2 (single isomer, unassigned) [Example 612]",,,,,,,,,,,,,,,10 to 50,< 1,< 1,< 10,< 1,
"O=C(NC(C(=O)N[C@H]1Cc2cccc(C(=O)O)c2OB1O)c1ccc(P(=O)(O)O)cc1)c1ccc2ccnn2c1 (stereo partly drawn) [Example 498, (3R)-2-hydroxy-3-(2-(4-phosphonophenyl)-2-(pyrazolo[1,5-a]pyridine-6-carboxamido)acetamido)-3,4-dihydro-2H-benzo[e][1,2]oxaborinine-8-carboxylic acid]",50 to 250,> 128,> 128,> 128,> 128,> 128,> 128,> 128,32 to 64,10 to 50,> 128,> 128,> 128,8 to 16,,,,,,MIC [6]: > 64 µg/mL; MIC (N. gonorrhoeae WHO Z): > 64 µg/mL; MIC (N. gonorrhoeae FA1090): 4 to 8 µg/mL
